In patent US9618507B2, “Methods of treating rheumatoid arthritis” (Betanien Hospital, priority 2014, dated 2017):
Where a SMILES comes first, the peptide text is derived from it. [ ]: non-standard residue; d: D form. dPhe(4-Cl) = N[C@H](Cc1ccc(Cl)cc1)C(=O)O; d2Nal = N[C@H](Cc1ccc2ccccc2c1)C(=O)O; dCit = NC(=O)NCCC[C@@H](N)C(=O)O; d3Pal = N[C@H](Cc1cccnc1)C(=O)O

Columns and labels:
[1] = system: RA patients with high gonadotropin levels; assay: Example 2: AGRA post hoc analyses in patients with high gonadotropin levels, disease activity (DAS28-CRP, ACR, EULAR); assay type: in vivo, human
Source text: Post hoc analyses is described herein.
Key inclusion criteria for AGRA were males or females aged ≧18 years with RA that had been diagnosed on the basis of the American College of Rheumatology (ACR) 1987 revised criteria (Arnett F C, et al., Arthritis Rheum 1988; 31:315-24); with active, and moderate or severe disease defined as a Disease Activity Score for 28-joint counts based on C-reactive protein (Wells G, et al., Ann Rheum Dis 2009; 68:954-60) (DAS28-CRP) >3.2 and at least two of the following criteria: ≧6 painful joints, ≧3 swollen joints, ESR ≧20 mm/h, and a C-reactive protein ≧10 mg/L). Prednisolone ≦7.5 mg/day was permitted if stable for at least 4 weeks prior to baseline; NSAIDs were permitted if stable for at least 2 weeks prior to baseline; and disease-modifying anti-rheumatic drugs (DMARDs) were permitted if stable for at least 8 weeks prior to baseline. Tumour necrosis factor-α (TNF-α) inhibitor or other biological agents were not permitted during the trial or within 4 weeks prior to inclusion. Infliximab/adalimumab was not permitted at least 3 months prior to inclusion; Rituximab was not permitted at least 6 months prior to inclusion. Intramuscular, intra-articular or intravenous corticosteroids; any hormone replacement therapy; or oral contraception was not permitted during the trial or within 4 weeks prior to inclusion.
In these post hoc analyses, a subgroup of AGRA patients with high gonadotropin levels were examined. There is no established cut-off for high LH and/or FSH. Therefore, levels above the median were defined as high (e.g., LH>17.3 IU/L and FSH>34.6 IU/L).
The intention-to-treat population was predefined as all randomised patients who received any study-drug injections. Missing values were <1% and could, as predefined, be imputed with the last-observation-carried-forward. The assumptions of normality needed for analyses were approximately valid. All statistical tests were two-sided (α=0.05) and performed with Stata 12 and StatXact 9. Analyses were performed by an offsite statistician who received locked databases from blinded investigators and laboratories, and the allocation key from the offsite central office.

[2] = system: LH, FSH, cortisol; assay: Example 1: serum hormone assays (LH, FSH, cortisol); assay type: in vivo, human
Method: Ethical committee approval was obtained. […] Safety and efficacy visits, with blood sampling, were between 0730 and 0930 h on days 1 (baseline), 2, 3, 4, 5 (visit 5a), 10, and 15. There was an additional visit (visit 5b) between 1930 and 2130 h when maximum GnRH suppression was anticipated.
Non-competitive immunofluorometric assays were used for the quantitative determination of serum LH and FSH (Dissociation Enhanced Lanthanide Fluoroimmunoassay [DELFIA] kit, Turku, Finland). A competitive immunofluorometric assay was used for the determination of serum oestradiol (DELFIA kit, Turku, Finland). A competitive radioimmunoassay was used for the quantitative determination of serum testosterone (Orion Diagnostica. Espoo, Finland). A competitive Iuminoimmunoassay was used for the quantitative determination of serum cortisol (Immulite 2000, California, USA).

[3] = high gonadotropin patients, by day 5, placebo 0%

CC(=O)N[C@H](Cc1ccc2ccccc2c1)C(=O)N[C@H](Cc1ccc(Cl)cc1)C(=O)N[C@H](Cc1cccnc1)C(=O)N[C@@H](CO)C(=O)N[C@@H](Cc1ccc(O)cc1)C(=O)N[C@H](CCCNC(N)=O)C(=O)N[C@@H](CC(C)C)C(=O)N[C@@H](CCCNC(=N)N)C(=O)N1CCC[C@H]1C(=O)N[C@H](C)C(N)=O [cetrorelix] (Ac-[d2Nal][dPhe(4-Cl)][d3Pal]SY[dCit]LRP[dA]-NH2)
reductions of DAS28-CRP and cytokines compared to placebo, high gonadotropin groups (N=53) versus the rest of the AGRA population (N=46) ([1]; FIG. 5B-E): greater reductions
patients achieving DAS28-CRP<2.6 [1, 3]: 15%
patients achieving DAS28-CRP≦3.2 [1, 3]: 22%
patients achieving EULAR 'Good-Responses' [1, 3]: 19%
patients achieving ACR20 responses ([1]; high gonadotropin patients, by day 5, placebo 19%): 44%
DAS28-CRP change by day 5 ([1]; high gonadotropin patients, cetrorelix N=27, 95% CI −1.3 to −0.67, placebo −0.40): −1.0
DAS28-CRP baseline-adjusted between-group difference ([1]; high gonadotropin patients, day 5, 95% CI 0.13 to 0.93, P=0.010): 0.53
ACR50 and ACR70 responses compared with placebo ([1]; high gonadotropin patients, numbers too small for valid conclusions): More patients reached ACR50 and ACR70 responses
DAS28-CRP reduction, prednisolone users (N=13) vs non-users (N=14) ([1]; patients who received cetrorelix, P=0.73): similar
LH and FSH levels ([2]; all patients allocated to cetrorelix, onset): reduced as early as day 2
Cortisol changes between groups ([2]; all patients, by day 5, p 0.80): not significantly different between groups
